Species on record: Rattus norvegicus
Experiment: DrugMatrix - Regimen: Daily Repeat
Format: toxicity, organism-based, Sprague-Dawley
Parameters: regimen Daily Repeat, gender Male, age 6-8 weeks
Conditions: in vivo, po, route oral GAVAGE, vehicle 100 % SALINE
[1] = 0 mg/kg, 72 h, tissue Blood, dose level Control, time 3 day
[2] = 0 mg/kg, 72 h, tissue Plasma, dose level Control, time 3 day
[3] = 0 mg/kg, 120 h, tissue Blood, dose level Control, time 5 day
[4] = 0 mg/kg, 120 h, tissue Plasma, dose level Control, time 5 day
[5] = 200 mg/kg, 72 h, tissue Blood, dose level Low, time 3 day
[6] = 200 mg/kg, 72 h, tissue Plasma, dose level Low, time 3 day

LEAD(IV) ACETATE
ABSOLUTE BASOPHIL [1]: 0 CELLS/uL | ABSOLUTE EOSINOPHIL [1]: 37 CELLS/uL | ABSOLUTE LYMPHOCYTE [1]: 12359.33 CELLS/uL | ABSOLUTE MONOCYTE [1]: 122.67 CELLS/uL | ABSOLUTE SEGMENTED NEUTROPHIL [1]: 847.67 CELLS/uL | BASOPHIL [1]: 0% | EOSINOPHIL [1]: 0.33% | ERYTHROCYTE COUNT [1]: 5.75 x10E6/uL | HEMATOCRIT [1]: 36.08% | LEUKOCYTE COUNT [1]: 13.37 x10E3/uL | MEAN CORPUSCULAR HEMOGLOBIN CONCENTRATION [1]: 38.98 G/DL | MONOCYTE [1]: 1% | NEUTROPHIL [1]: 6.17% | NUCLEATED RED BLOOD CELLS [1]: 0.17 /100WBC | PLATELET COUNT [1]: 1202.17 x10E3/uL | ALANINE AMINOTRANSFERASE [2]: 50.67 u/L | ALKALINE PHOSPHATASE [2]: 356.33 u/L | ASPARTATE AMINOTRANSFERASE [2]: 78.17 u/L | BLOOD UREA NITROGEN [2]: 14.17 mg/dL | CARBON DIOXIDE [2]: 31.33 mmol/L | CHLORIDE [2]: 98.5 MEQ/L | CHOLESTEROL [2]: 76.5 mg/dL | CREATINE PHOSPHOKINASE [2]: 248.33 u/L | CREATININE [2]: 0.2 mg/dL | LACTATE DEHYDROGENASE [2]: 107 u/L | LIPASE [2]: 9.83 u/L | PHOSPHORUS [2]: 12.8 mg/dL | POTASSIUM [2]: 6.75 MEQ/L | TOTAL BILIRUBIN [2]: 0.18 mg/dL | TOTAL PROTEIN [2]: 5.98 G/DL | URIC ACID [2]: 1.42 mg/dL | ABSOLUTE BASOPHIL [3]: 0 CELLS/uL | ABSOLUTE EOSINOPHIL [3]: 0 CELLS/uL | ABSOLUTE LYMPHOCYTE [3]: 8681.17 CELLS/uL | ABSOLUTE MONOCYTE [3]: 79.83 CELLS/uL | ABSOLUTE SEGMENTED NEUTROPHIL [3]: 689 CELLS/uL | BASOPHIL [3]: 0% | EOSINOPHIL [3]: 0% | ERYTHROCYTE COUNT [3]: 5.49 x10E6/uL | HEMATOCRIT [3]: 33.55% | HEMOGLOBIN [3]: 13.1 G/DL | LEUKOCYTE COUNT [3]: 9.45 x10E3/uL | LYMPHOCYTE [3]: 92.33% | MEAN CORPUSCULAR HEMOGLOBIN [3]: 23.92 pg | MEAN CORPUSCULAR HEMOGLOBIN CONCENTRATION [3]: 39.07 G/DL | MONOCYTE [3]: 0.67% | NEUTROPHIL [3]: 7% | NUCLEATED RED BLOOD CELLS [3]: 0.17 /100WBC | PLATELET COUNT [3]: 1001.17 x10E3/uL | ALANINE AMINOTRANSFERASE [4]: 49.33 u/L | ALKALINE PHOSPHATASE [4]: 300.33 u/L | ASPARTATE AMINOTRANSFERASE [4]: 83.5 u/L | BLOOD UREA NITROGEN [4]: 16 mg/dL | CHLORIDE [4]: 100.5 MEQ/L | CHOLESTEROL [4]: 74.33 mg/dL | CREATINE PHOSPHOKINASE [4]: 489.67 u/L | CREATININE [4]: 0.35 mg/dL | GLUCOSE [4]: 151 mg/dL | LACTATE DEHYDROGENASE [4]: 133.67 u/L | LIPASE [4]: 11.17 u/L | PHOSPHORUS [4]: 10.88 mg/dL | POTASSIUM [4]: 5.5 MEQ/L | SODIUM [4]: 145.7 MEQ/L | TOTAL BILIRUBIN [4]: 0.2 mg/dL | TOTAL PROTEIN [4]: 6.05 G/DL | URIC ACID [4]: 0.68 mg/dL | ABSOLUTE BASOPHIL [5]: 0 CELLS/uL | ABSOLUTE EOSINOPHIL [5]: 125.67 CELLS/uL | ABSOLUTE LYMPHOCYTE [5]: 10005 CELLS/uL | ABSOLUTE MONOCYTE [5]: 182.33 CELLS/uL | ABSOLUTE SEGMENTED NEUTROPHIL [5]: 487 CELLS/uL | BASOPHIL [5]: 0% | EOSINOPHIL [5]: 1% | ERYTHROCYTE COUNT [5]: 5.79 x10E6/uL | HEMATOCRIT [5]: 34.9% | HEMOGLOBIN [5]: 13.63 G/DL | LEUKOCYTE COUNT [5]: 10.8 x10E3/uL | LYMPHOCYTE [5]: 92.67% | MEAN CORPUSCULAR HEMOGLOBIN [5]: 23.53 pg | MEAN CORPUSCULAR HEMOGLOBIN CONCENTRATION [5]: 39.07 G/DL | MEAN CORPUSCULAR VOLUME [5]: 60.3 fL | NEUTROPHIL [5]: 5% | NUCLEATED RED BLOOD CELLS [5]: 0 /100WBC | PLATELET COUNT [5]: 964.33 x10E3/uL | ALANINE AMINOTRANSFERASE [6]: 55.67 u/L | ALKALINE PHOSPHATASE [6]: 341.67 u/L | ASPARTATE AMINOTRANSFERASE [6]: 108 u/L | BLOOD UREA NITROGEN [6]: 12.67 mg/dL | CARBON DIOXIDE [6]: 29.33 mmol/L | CHLORIDE [6]: 100 MEQ/L | CHOLESTEROL [6]: 73.67 mg/dL | CREATINE PHOSPHOKINASE [6]: 327.67 u/L | CREATININE [6]: 0.26 mg/dL | GLUCOSE [6]: 150.33 mg/dL | LACTATE DEHYDROGENASE [6]: 126.67 u/L | LIPASE [6]: 14.33 u/L | POTASSIUM [6]: 6.03 MEQ/L | TOTAL BILIRUBIN [6]: 0.0667 mg/dL | TOTAL PROTEIN [6]: 5.93 G/DL | URIC ACID [6]: 1.2 mg/dL
